Measured values from PubChem BioAssay (NCI).
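Following 48 hours of exposure in 96-well plates, responses at five concentrations were used to interpolate endpoints linearly. GI50 is the concentration that inhibits growth by half. At the TGI there is no net growth.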

Legend:
Test in all cases: DTP human tumour cell line panel, 48 h
MDA-MB-231 breast = system: MDA-MB-231 breast
SK-MEL-5 melanoma = system: SK-MEL-5 melanoma
HOP-62 NSCLC = system: HOP-62 NSCLC
COLO 205 colon = system: COLO 205 colon
MCF7 breast = system: MCF7 breast
SNB-75 CNS = system: SNB-75 CNS
EKVX NSCLC = system: EKVX NSCLC
786-0 renal = system: 786-0 renal
K-562 leukemia = system: K-562 leukemia
SK-MEL-28 melanoma = system: SK-MEL-28 melanoma
NCI/ADR-RES ovarian = system: NCI/ADR-RES ovarian
MDA-MB-435 = system: MDA-MB-435
OVCAR-5 ovarian = system: OVCAR-5 ovarian
HCT-15 colon = system: HCT-15 colon
A498 renal = system: A498 renal
PC-3 prostate = system: PC-3 prostate
MALME-3M melanoma = system: MALME-3M melanoma
CAKI-1 renal = system: CAKI-1 renal
SF-295 CNS = system: SF-295 CNS
RXF 393 renal = system: RXF 393 renal
OVCAR-3 ovarian = system: OVCAR-3 ovarian
BT-549 breast = system: BT-549 breast
HS 578T breast = system: HS 578T breast
SNB-19 CNS = system: SNB-19 CNS
SF-268 CNS = system: SF-268 CNS
LOX IMVI melanoma = system: LOX IMVI melanoma
NCI-H522 lung = system: NCI-H522 lung
SN12C renal = system: SN12C renal
SK-OV-3 ovarian = system: SK-OV-3 ovarian
SR leukemia = system: SR leukemia
UACC-257 melanoma = system: UACC-257 melanoma
SK-MEL-2 melanoma = system: SK-MEL-2 melanoma
M14 melanoma = system: M14 melanoma
RPMI-8226 leukemia = system: RPMI-8226 leukemia
T-47D breast = system: T-47D breast
SF-539 CNS = system: SF-539 CNS
CCRF-CEM leukemia = system: CCRF-CEM leukemia
MOLT-4 leukemia = system: MOLT-4 leukemia
HCC-2998 colon = system: HCC-2998 colon
TK-10 renal = system: TK-10 renal
ACHN renal = system: ACHN renal
UACC-62 melanoma = system: UACC-62 melanoma
A549 NSCLC = system: A549 NSCLC
KM12 colon = system: KM12 colon
SW-620 colon = system: SW-620 colon
IGROV1 ovarian = system: IGROV1 ovarian
NCI-H226 lung = system: NCI-H226 lung
OVCAR-4 ovarian = system: OVCAR-4 ovarian
UO-31 renal = system: UO-31 renal
HL-60(TB) leukemia = system: HL-60(TB) leukemia
DU-145 prostate = system: DU-145 prostate
OVCAR-8 ovarian = system: OVCAR-8 ovarian
U251 CNS = system: U251 CNS
NCI-H460 lung = system: NCI-H460 lung
HT29 colon = system: HT29 colon
HCT-116 colon = system: HCT-116 colon
HOP-92 NSCLC = system: HOP-92 NSCLC

N#Cc1c(-c2ccc(Cl)cc2)nc(SCc2ccc(F)cc2)nc1N1CCNCC1
GI50 (MDA-MB-231 breast): 1.83 µM
TGI (MDA-MB-231 breast): 3.47 µM
GI50 (SK-MEL-5 melanoma): 14.3 µM
TGI (SK-MEL-5 melanoma): 29.5 µM
GI50 (HOP-62 NSCLC): 1.64 µM
TGI (HOP-62 NSCLC): 3.26 µM
GI50 (COLO 205 colon): 1.75 µM
TGI (COLO 205 colon): 3.2 µM
GI50 (MCF7 breast): 1.65 µM
TGI (MCF7 breast): 3.29 µM
GI50 (SNB-75 CNS): 1.46 µM
TGI (SNB-75 CNS): 2.83 µM
GI50 (EKVX NSCLC): 4.98 µM
TGI (EKVX NSCLC): 19.7 µM
GI50 (786-0 renal): 1.61 µM
TGI (786-0 renal): 3.2 µM
GI50 (K-562 leukemia): 2.09 µM
TGI (K-562 leukemia): 5.22 µM
GI50 (SK-MEL-28 melanoma): 1.74 µM
TGI (SK-MEL-28 melanoma): 3.15 µM
GI50 (NCI/ADR-RES ovarian): 1.73 µM
TGI (NCI/ADR-RES ovarian): 3.28 µM
GI50 (MDA-MB-435): 1.68 µM
TGI (MDA-MB-435): 3.05 µM
GI50 (OVCAR-5 ovarian): 2.2 µM
TGI (OVCAR-5 ovarian): 6.25 µM
GI50 (HCT-15 colon): 1.81 µM
TGI (HCT-15 colon): 3.45 µM
GI50 (A498 renal): 14.3 µM
TGI (A498 renal): 30.1 µM
GI50 (PC-3 prostate): 1.79 µM
TGI (PC-3 prostate): 3.75 µM
GI50 (MALME-3M melanoma): 1.69 µM
TGI (MALME-3M melanoma): 3.35 µM
GI50 (CAKI-1 renal): 1.4 µM
TGI (CAKI-1 renal): 2.71 µM
GI50 (SF-295 CNS): 1.88 µM
TGI (SF-295 CNS): 3.47 µM
GI50 (RXF 393 renal): 1.53 µM
TGI (RXF 393 renal): 2.87 µM
GI50 (OVCAR-3 ovarian): 1.89 µM
TGI (OVCAR-3 ovarian): 3.71 µM
GI50 (BT-549 breast): 7.59 µM
TGI (BT-549 breast): 22.1 µM
GI50 (HS 578T breast): 1.95 µM
TGI (HS 578T breast): 4.45 µM
GI50 (SNB-19 CNS): 2.21 µM
TGI (SNB-19 CNS): 6.02 µM
GI50 (SF-268 CNS): 2.27 µM
TGI (SF-268 CNS): 5.82 µM
GI50 (LOX IMVI melanoma): 1.7 µM
TGI (LOX IMVI melanoma): 3.07 µM
GI50 (NCI-H522 lung): 1.61 µM
TGI (NCI-H522 lung): 3.08 µM
GI50 (SN12C renal): 1.73 µM
TGI (SN12C renal): 3.33 µM
GI50 (SK-OV-3 ovarian): 10.4 µM
TGI (SK-OV-3 ovarian): 24.8 µM
GI50 (SR leukemia): 1.99 µM
TGI (SR leukemia): 4.79 µM
GI50 (UACC-257 melanoma): 1.64 µM
TGI (UACC-257 melanoma): 3.13 µM
GI50 (SK-MEL-2 melanoma): 14.7 µM
TGI (SK-MEL-2 melanoma): 29.3 µM
GI50 (M14 melanoma): 1.67 µM
TGI (M14 melanoma): 3.09 µM
GI50 (RPMI-8226 leukemia): 2.19 µM
TGI (RPMI-8226 leukemia): 5.23 µM
GI50 (T-47D breast): 1.69 µM
TGI (T-47D breast): 3.52 µM
GI50 (SF-539 CNS): 1.71 µM
TGI (SF-539 CNS): 3.16 µM
GI50 (CCRF-CEM leukemia): 2.82 µM
TGI (CCRF-CEM leukemia): 8.28 µM
GI50 (MOLT-4 leukemia): 2.43 µM
TGI (MOLT-4 leukemia): 6.54 µM
GI50 (HCC-2998 colon): 1.8 µM
TGI (HCC-2998 colon): 3.22 µM
GI50 (TK-10 renal): 10.6 µM
TGI (TK-10 renal): 23.9 µM
GI50 (ACHN renal): 1.8 µM
TGI (ACHN renal): 3.19 µM
GI50 (UACC-62 melanoma): 1.76 µM
TGI (UACC-62 melanoma): 3.33 µM
GI50 (A549 NSCLC): 1.61 µM
TGI (A549 NSCLC): 3.06 µM
GI50 (KM12 colon): 1.91 µM
TGI (KM12 colon): 3.82 µM
GI50 (SW-620 colon): 1.98 µM
TGI (SW-620 colon): 4.04 µM
GI50 (IGROV1 ovarian): 1.8 µM
TGI (IGROV1 ovarian): 3.57 µM
GI50 (NCI-H226 lung): 5.97 µM
TGI (NCI-H226 lung): 24.9 µM
GI50 (OVCAR-4 ovarian): 1.78 µM
TGI (OVCAR-4 ovarian): 4.06 µM
GI50 (UO-31 renal): 1.4 µM
TGI (UO-31 renal): 2.83 µM
GI50 (HL-60(TB) leukemia): 1.83 µM
TGI (HL-60(TB) leukemia): 4.2 µM
GI50 (DU-145 prostate): 2.59 µM
TGI (DU-145 prostate): 6.54 µM
GI50 (OVCAR-8 ovarian): 1.84 µM
TGI (OVCAR-8 ovarian): 3.45 µM
GI50 (U251 CNS): 1.69 µM
TGI (U251 CNS): 3.13 µM
GI50 (NCI-H460 lung): 1.97 µM
TGI (NCI-H460 lung): 3.74 µM
GI50 (HT29 colon): 1.74 µM
TGI (HT29 colon): 3.14 µM
GI50 (HCT-116 colon): 1.72 µM
TGI (HCT-116 colon): 3.09 µM
GI50 (HOP-92 NSCLC): 1.61 µM
TGI (HOP-92 NSCLC): 8.51 µM
